Test results from PubChem BioAssay (NCI).
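96-well plates; 48 h exposure; 5 concentrations. Endpoints by linear interpolation between flanking doses. Not reached: highest tested concentration assigned. At the TGI there is no net growth.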

Tests used:
Experiment in all cases: NCI-60 cell line screen, 48 h
786-0 renal = system: 786-0 renal
A498 renal = system: A498 renal
A549 NSCLC = system: A549 NSCLC
ACHN renal = system: ACHN renal
BT-549 breast = system: BT-549 breast
CAKI-1 renal = system: CAKI-1 renal
CCRF-CEM leukemia = system: CCRF-CEM leukemia
COLO 205 colon = system: COLO 205 colon
DU-145 prostate = system: DU-145 prostate
EKVX NSCLC = system: EKVX NSCLC
HCT-116 colon = system: HCT-116 colon
HCT-15 colon = system: HCT-15 colon
HL-60(TB) leukemia = system: HL-60(TB) leukemia
HOP-62 NSCLC = system: HOP-62 NSCLC
HOP-92 NSCLC = system: HOP-92 NSCLC
HS 578T breast = system: HS 578T breast
HT29 colon = system: HT29 colon
IGROV1 ovarian = system: IGROV1 ovarian
K-562 leukemia = system: K-562 leukemia
KM12 colon = system: KM12 colon
LOX IMVI melanoma = system: LOX IMVI melanoma
M14 melanoma = system: M14 melanoma
MALME-3M melanoma = system: MALME-3M melanoma
MCF7 breast = system: MCF7 breast
MDA-MB-231 breast = system: MDA-MB-231 breast
MDA-MB-435 = system: MDA-MB-435
MDA-N = system: MDA-N
MOLT-4 leukemia = system: MOLT-4 leukemia
NCI-H226 lung = system: NCI-H226 lung
NCI-H23 lung = system: NCI-H23 lung
NCI-H460 lung = system: NCI-H460 lung
NCI-H522 lung = system: NCI-H522 lung
NCI/ADR-RES ovarian = system: NCI/ADR-RES ovarian
OVCAR-3 ovarian = system: OVCAR-3 ovarian
OVCAR-4 ovarian = system: OVCAR-4 ovarian
OVCAR-5 ovarian = system: OVCAR-5 ovarian
OVCAR-8 ovarian = system: OVCAR-8 ovarian
PC-3 prostate = system: PC-3 prostate
RPMI-8226 leukemia = system: RPMI-8226 leukemia
RXF 393 renal = system: RXF 393 renal
SF-268 CNS = system: SF-268 CNS
SF-295 CNS = system: SF-295 CNS
SF-539 CNS = system: SF-539 CNS
SK-MEL-2 melanoma = system: SK-MEL-2 melanoma
SK-MEL-28 melanoma = system: SK-MEL-28 melanoma
SK-MEL-5 melanoma = system: SK-MEL-5 melanoma
SK-OV-3 ovarian = system: SK-OV-3 ovarian
SN12C renal = system: SN12C renal
SNB-19 CNS = system: SNB-19 CNS
SNB-75 CNS = system: SNB-75 CNS
SR leukemia = system: SR leukemia
SW-620 colon = system: SW-620 colon
T-47D breast = system: T-47D breast
TK-10 renal = system: TK-10 renal
U251 CNS = system: U251 CNS
UACC-257 melanoma = system: UACC-257 melanoma
UACC-62 melanoma = system: UACC-62 melanoma
UO-31 renal = system: UO-31 renal
HCC-2998 colon = system: HCC-2998 colon

Which results are given for `Nc1ncnc2c1ncn2C1OC(C(=O)O)C(O)C1O` (stereo not given)?
TGI (786-0 renal): > 100 µM; TGI (A498 renal): > 100 µM; TGI (A549 NSCLC): > 100 µM; TGI (ACHN renal): > 100 µM; TGI (BT-549 breast): > 100 µM; TGI (CAKI-1 renal): > 100 µM; TGI (CCRF-CEM leukemia): > 100 µM; TGI (COLO 205 colon): > 100 µM; TGI (DU-145 prostate): > 100 µM; TGI (EKVX NSCLC): > 100 µM; TGI (HCT-116 colon): > 100 µM; TGI (HCT-15 colon): > 100 µM; TGI (HL-60(TB) leukemia): > 100 µM; TGI (HOP-62 NSCLC): > 100 µM; TGI (HOP-92 NSCLC): > 100 µM; TGI (HS 578T breast): > 100 µM; TGI (HT29 colon): > 100 µM; TGI (IGROV1 ovarian): > 100 µM; TGI (K-562 leukemia): > 100 µM; TGI (KM12 colon): > 100 µM; TGI (LOX IMVI melanoma): > 100 µM; TGI (M14 melanoma): > 100 µM; TGI (MALME-3M melanoma): > 100 µM; TGI (MCF7 breast): > 100 µM; TGI (MDA-MB-231 breast): > 100 µM; TGI (MDA-MB-435): > 100 µM; TGI (MDA-N): > 100 µM; TGI (MOLT-4 leukemia): > 100 µM; TGI (NCI-H226 lung): > 100 µM; TGI (NCI-H23 lung): > 100 µM; TGI (NCI-H460 lung): > 100 µM; TGI (NCI-H522 lung): > 100 µM; TGI (NCI/ADR-RES ovarian): > 100 µM; TGI (OVCAR-3 ovarian): > 100 µM; TGI (OVCAR-4 ovarian): > 100 µM; TGI (OVCAR-5 ovarian): > 100 µM; TGI (OVCAR-8 ovarian): > 100 µM; TGI (PC-3 prostate): > 100 µM; TGI (RPMI-8226 leukemia): > 100 µM; TGI (RXF 393 renal): > 100 µM; TGI (SF-268 CNS): > 100 µM; TGI (SF-295 CNS): > 100 µM; TGI (SF-539 CNS): > 100 µM; TGI (SK-MEL-2 melanoma): > 100 µM; TGI (SK-MEL-28 melanoma): > 100 µM; TGI (SK-MEL-5 melanoma): > 100 µM; TGI (SK-OV-3 ovarian): > 100 µM; TGI (SN12C renal): > 100 µM; TGI (SNB-19 CNS): > 100 µM; TGI (SNB-75 CNS): > 100 µM; TGI (SR leukemia): > 100 µM; TGI (SW-620 colon): > 100 µM; TGI (T-47D breast): > 100 µM; TGI (TK-10 renal): > 100 µM; TGI (U251 CNS): > 100 µM; TGI (UACC-257 melanoma): > 100 µM; TGI (UACC-62 melanoma): > 100 µM; TGI (UO-31 renal): > 100 µM

For `CN(C)CCOc1ccc(-c2c(Oc3ccc(Cl)cc3)c(=O)oc3ccccc23)cc1`, which TGI (786-0 renal) is on record?
Its TGI is over 27.9 µM.

What about the TGI (A498 renal) of the same compound?
Its TGI is 43 µM.

What about the TGI (A549 NSCLC) of the same compound?
Its TGI is over 32.5 µM.

And the TGI (ACHN renal)?
The TGI was over 48.5 µM.

What about the TGI (BT-549 breast) of the same compound?
Its TGI is 28.3 µM.

What about the TGI (CAKI-1 renal) of the same compound?
The TGI was 39.6 µM.

What about the TGI (CCRF-CEM leukemia) of the same compound?
The TGI was over 29 µM.

What about the TGI (COLO 205 colon) of the same compound?
Its TGI is over 39 µM.

What about the TGI (DU-145 prostate) of the same compound?
Its TGI is 45.5 µM.

What about the TGI (EKVX NSCLC) of the same compound?
The TGI was 37.6 µM.

And the TGI (HCC-2998 colon)?
The TGI was 12.3 µM.

What about the TGI (HCT-116 colon) of the same compound?
Its TGI is over 32.9 µM.

What about the TGI (HCT-15 colon) of the same compound?
Its TGI is 22.8 µM.

What about the TGI (HL-60(TB) leukemia) of the same compound?
The TGI was over 100 µM.

What about the TGI (HOP-62 NSCLC) of the same compound?
The TGI was 87.8 µM.

What about the TGI (HOP-92 NSCLC) of the same compound?
Its TGI is over 39.4 µM.

What about the TGI (HS 578T breast) of the same compound?
Its TGI is 24.8 µM.

And the TGI (HT29 colon)?
Its TGI is over 38.7 µM.

What about the TGI (IGROV1 ovarian) of the same compound?
The TGI was 19.2 µM.

And the TGI (K-562 leukemia)?
The TGI was over 60 µM.

And the TGI (KM12 colon)?
The TGI was 48.1 µM.

And the TGI (LOX IMVI melanoma)?
The TGI was over 35.7 µM.

And the TGI (M14 melanoma)?
Its TGI is 3.12 µM.

And the TGI (MALME-3M melanoma)?
The TGI was 25.3 µM.

And the TGI (MCF7 breast)?
Its TGI is over 28.3 µM.

And the TGI (MDA-MB-231 breast)?
Its TGI is 22.4 µM.

And the TGI (MDA-MB-435)?
Its TGI is over 31.2 µM.

What about the TGI (MDA-N) of the same compound?
Its TGI is 13.5 µM.

What about the TGI (MOLT-4 leukemia) of the same compound?
The TGI was over 41.8 µM.

What about the TGI (NCI-H226 lung) of the same compound?
Its TGI is over 53.9 µM.

What about the TGI (NCI-H23 lung) of the same compound?
The TGI was 34.8 µM.

And the TGI (NCI-H460 lung)?
Its TGI is 27.4 µM.

And the TGI (NCI-H522 lung)?
The TGI was 20.9 µM.

What about the TGI (NCI/ADR-RES ovarian) of the same compound?
Its TGI is over 52.1 µM.

What about the TGI (OVCAR-3 ovarian) of the same compound?
The TGI was 34.3 µM.

What about the TGI (OVCAR-4 ovarian) of the same compound?
The TGI was 28.1 µM.

What about the TGI (OVCAR-5 ovarian) of the same compound?
Its TGI is 35.7 µM.

And the TGI (OVCAR-8 ovarian)?
Its TGI is over 42.8 µM.

What about the TGI (PC-3 prostate) of the same compound?
Its TGI is 30.1 µM.

And the TGI (RPMI-8226 leukemia)?
The TGI was 43.6 µM.

What about the TGI (RXF 393 renal) of the same compound?
The TGI was over 48.3 µM.

And the TGI (SF-268 CNS)?
The TGI was 29.5 µM.

What about the TGI (SF-295 CNS) of the same compound?
The TGI was over 25.7 µM.

And the TGI (SF-539 CNS)?
The TGI was over 62.5 µM.

And the TGI (SK-MEL-2 melanoma)?
The TGI was 22.6 µM.

And the TGI (SK-MEL-5 melanoma)?
The TGI was 4.55 µM.

And the TGI (SK-OV-3 ovarian)?
Its TGI is 65.7 µM.

And the TGI (SN12C renal)?
Its TGI is over 43.6 µM.

What about the TGI (SNB-19 CNS) of the same compound?
The TGI was over 46 µM.

What about the TGI (SNB-75 CNS) of the same compound?
Its TGI is 25.3 µM.

What about the TGI (SR leukemia) of the same compound?
Its TGI is over 30.6 µM.

What about the TGI (SW-620 colon) of the same compound?
The TGI was over 62 µM.

What about the TGI (T-47D breast) of the same compound?
Its TGI is over 100 µM.

And the TGI (TK-10 renal)?
Its TGI is 29.9 µM.

And the TGI (U251 CNS)?
Its TGI is over 32.9 µM.

And the TGI (UACC-62 melanoma)?
Its TGI is 32.1 µM.

What about the TGI (UO-31 renal) of the same compound?
Its TGI is over 28.9 µM.
